Source: US9045482B2, “Pyrido[4,3-B]indoles and methods of use” (Medivation Technologies, Inc., priority 2009, dated 2015)

How the values were obtained:
[1] = target: T1, human recombinant serotonin (5-Hydroxytryptamine) 5-HT2A receptor (Homo sapiens, UniProt P28223); test: Serotonin 5-HT2A radioligand binding ([3H]Ketanserin); conditions: 0.1 μM ligand concentration
T1 construct: expressed in transfected cells; host or cells: Chinese hamster ovary (CHO-K1) cells
Method: (1997), 68:1998] in a 50 mM Tris-HCl buffer, pH 7.4, was used. Compounds of the invention were incubated with 0.5 nM [^3H]Ketanserin for 60 min at 25° C. Non-specific binding was estimated in the presence of 1 μM Mianserin. Receptor proteins were filtered and washed, the filters were then counted to determine [^3H]Ketanserin specifically bound. Compounds were screened at 1 μM or lower, using 1% DMSO as vehicle. Biochemical assay results are presented as the percent inhibition of specific binding in Table 4.

[2] = target: human recombinant serotonin (5-Hydroxytryptamine) 5-HT7 receptor (Homo sapiens, UniProt P34969); test: Serotonin 5-HT7 radioligand binding ([3H]LSD); conditions: 0.1 μM ligand concentration
Method: Compounds of invention were incubated with 5.5 nM [^3H]Lysergic acid diethylamide (LSD) for 2 h at 25° C. […] Receptor proteins were filtered and washed, the filters were then counted to determine [^3H]LSD specifically bound. Compounds were screened at 1 μM or lower, using 1% DMSO as vehicle. Biochemical assay results are presented as the percent inhibition of specific binding in Table 4.

[3] = target: T2, human recombinant adrenergic α2B receptor (Homo sapiens, UniProt P18089); test: Adrenergic α2B radioligand binding ([3H]Rauwolscine); conditions: 0.1 μM ligand conc.
T2 construct: expressed in transfected cells; host or cells: Chinese hamster ovary (CHO-K1) cells
T2 sequence (P18089 1-450): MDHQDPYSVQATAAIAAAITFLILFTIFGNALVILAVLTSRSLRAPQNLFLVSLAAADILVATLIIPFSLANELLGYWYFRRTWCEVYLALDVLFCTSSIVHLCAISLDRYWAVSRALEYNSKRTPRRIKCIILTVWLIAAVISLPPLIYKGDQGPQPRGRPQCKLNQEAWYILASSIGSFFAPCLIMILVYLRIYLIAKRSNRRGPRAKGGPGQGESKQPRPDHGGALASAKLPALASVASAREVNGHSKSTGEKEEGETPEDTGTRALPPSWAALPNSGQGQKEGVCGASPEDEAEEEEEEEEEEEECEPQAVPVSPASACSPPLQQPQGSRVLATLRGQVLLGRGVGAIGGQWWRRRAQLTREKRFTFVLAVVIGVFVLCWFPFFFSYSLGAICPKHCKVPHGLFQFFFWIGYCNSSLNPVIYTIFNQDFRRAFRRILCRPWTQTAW
Method: To evaluate in radioligand binding assays the activity of compounds of the invention, human recombinant adrenergic α2B receptor expressed in Chinese hamster ovary (CHO-K1) cells [Uhlen, S. et al., Eur. J. Pharmacol. (1998), 343(1):93] in a modified Tris-HCl buffer (50 mM Tris-HCl, pH 7.4, 12.5 mM MgCl2, 1 mM EDTA, 0.2% BSA) was used. Compounds of the invention were incubated with 2.5 nM [^3H]Rauwolscine for 60 min at 25° C. Non-specific binding was estimated in the presence of 10 μM Prozosin. Receptor proteins were filtered and washed, the filters were then counted to determine [^3H]Rauwolscine specifically bound. Compounds were screened at 1 μM or lower, using 1% DMSO as vehicle. Compounds of the invention were tested in this biochemical assay. Biochemical assay results for representative compounds were presented as the percent inhibition of specific binding in Table 3.

[4] = target: T3, human recombinant serotonin (5-Hydroxytryptamine) 5-HT6 receptor (Homo sapiens, UniProt P50406); test: Serotonin 5-HT6 radioligand binding ([3H]LSD); conditions: 0.1 μM ligand concentration
T3 construct: expressed in transfected cells; host or cells: human HeLa cells
Method: Compounds of the invention were incubated with 1.5 nM [3H]Lysergic acid diethylamide (LSD) for 120 min at 37° C. […] Receptor proteins were filtered and washed, the filters were then counted to determine [3H]LSD specifically bound. Compounds were screened at 1 μM or lower, using 1% DMSO as vehicle. Biochemical assay results are presented as the percent inhibition of specific binding in Table 4.

T1 sequence (P28223 whole entry): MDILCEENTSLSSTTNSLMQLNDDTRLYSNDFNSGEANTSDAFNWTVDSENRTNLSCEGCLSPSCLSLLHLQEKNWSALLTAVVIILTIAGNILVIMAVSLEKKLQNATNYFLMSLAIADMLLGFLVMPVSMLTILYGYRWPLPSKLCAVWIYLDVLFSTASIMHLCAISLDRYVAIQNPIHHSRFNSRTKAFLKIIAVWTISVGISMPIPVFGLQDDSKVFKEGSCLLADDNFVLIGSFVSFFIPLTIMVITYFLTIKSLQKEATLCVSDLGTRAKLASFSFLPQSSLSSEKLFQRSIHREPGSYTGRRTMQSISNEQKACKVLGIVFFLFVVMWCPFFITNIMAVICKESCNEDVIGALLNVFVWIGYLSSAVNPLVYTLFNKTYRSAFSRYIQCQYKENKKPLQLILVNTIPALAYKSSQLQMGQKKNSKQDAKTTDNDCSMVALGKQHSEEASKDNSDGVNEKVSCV
T3 sequence (P50406 whole entry): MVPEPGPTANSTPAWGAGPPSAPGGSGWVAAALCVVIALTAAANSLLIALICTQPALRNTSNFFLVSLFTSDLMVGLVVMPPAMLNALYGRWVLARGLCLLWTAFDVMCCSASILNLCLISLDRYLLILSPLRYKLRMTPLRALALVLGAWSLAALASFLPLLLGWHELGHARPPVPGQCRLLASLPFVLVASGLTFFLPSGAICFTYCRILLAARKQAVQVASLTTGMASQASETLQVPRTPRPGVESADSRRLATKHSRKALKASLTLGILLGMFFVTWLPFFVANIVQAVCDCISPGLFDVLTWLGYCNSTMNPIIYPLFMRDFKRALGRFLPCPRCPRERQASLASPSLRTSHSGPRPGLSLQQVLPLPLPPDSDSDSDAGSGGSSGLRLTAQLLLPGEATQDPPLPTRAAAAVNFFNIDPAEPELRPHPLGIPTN
Chain of human recombinant serotonin (5-Hydroxytryptamine) 5-HT7 receptor (P34969 whole entry): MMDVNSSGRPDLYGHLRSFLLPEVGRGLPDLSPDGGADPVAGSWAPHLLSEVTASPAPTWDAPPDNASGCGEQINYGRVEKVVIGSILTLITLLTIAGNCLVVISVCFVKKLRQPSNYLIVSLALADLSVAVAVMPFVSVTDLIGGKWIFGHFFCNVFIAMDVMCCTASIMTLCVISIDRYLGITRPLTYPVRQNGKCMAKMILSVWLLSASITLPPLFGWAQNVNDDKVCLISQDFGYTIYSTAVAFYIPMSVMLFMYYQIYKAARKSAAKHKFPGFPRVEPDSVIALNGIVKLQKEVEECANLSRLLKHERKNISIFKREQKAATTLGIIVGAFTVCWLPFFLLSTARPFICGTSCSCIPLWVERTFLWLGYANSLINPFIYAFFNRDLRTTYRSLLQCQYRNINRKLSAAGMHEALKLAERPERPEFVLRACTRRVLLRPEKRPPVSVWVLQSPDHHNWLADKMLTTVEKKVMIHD

Structure (SMILES) | Percent Inhibition of ligand binding Serotonin 5-HT2A [1] | Percent Inhibition of ligand binding Serotonin 5-HT7 [2] | Percent Inhibition of ligand binding Adrenergic α2B [3] | Percent Inhibition of ligand binding Serotonin 5-HT6 [4]
Cc1cnc2c(c1)c1c(n2CC(=O)N2CCCCC2)CCN2CCCC12 (centres unmarked) [Compound 41, 2-(10-methyl-2,3,5,6-tetrahydro-1H-pyrido[3′,2′:4,5]pyrrolo[2,3-g]indolizin-7(11cH)-yl)-1-(piperidin-1-yl)ethanone] | −2% | −5% | 14% | 8%
Cc1cnc2c(c1)c1c(n2CC(=O)N2CCCCC2)CC2CCCN2C1 (centres unmarked) [Compound 42, 2-(3-methyl-8,9,9a,10-tetrahydro-5H-pyrido[3′,2′:4,5]pyrrolo[3,2-f]indolizin-11(7H)-yl)-1-(piperidin-1-yl)ethanone] | 1% | −1% | 3% | 2%
